Reference: ChEMBL document CHEMBL1201862, “PubChem BioAssay data set” (2004)
Activity calls are given as the source filed them.

Experiments:
[1] = Luminescence Cell-Based Dose Response HTS to Identify Inhibitors of Luciferase Translation or Activity in H4-C Neuroglioblastoma Cells. [Related pubchem assays: 1813 (Primary HTS), 1827 (Project Summary)]; format: functional
[2] = Luminescence Cell-Based Dose Response HTS to Identify Activators of Luciferase Translation or Activity in H4-C Neuroglioblastoma Cells. [Related pubchem assays: 1829 (Project Summary), 1814 (Primary HTS)]; format: functional
[3] = Luminescence Cell-Based Dose Response HTS to Identify Activators of 5'UTR Stem-Loop Driven Prion Protein mRNA Translation in H4-C Neuroglioblastoma Cells. [Related pubchem assays: 1829 (Project Summary), 1814 (Primary HTS)]; format: functional
[4] = Luminescence Cell-Based Dose HTS Response to Identify Inhibitors of 5'UTR Stem-Loop Driven Prion Protein mRNA Translation in H4-C Neuroglioblastoma Cells. [Related pubchem assays (depositor defined):AID1814, AID1827]; format: functional
[5] = test system: BJ; assay: cytotoxicity toward BJ-TERT fibroblasts, dose response, cell-based, RAS-independent, luminescence (AID 1933); format: functional; details: Homo sapiens
[6] = Luminescence Cell-Based Dose Response HTS to Identify Inhibitors of 5'UTR Stem-Loop Driven Prion Protein mRNA Translation in H4 Neuroglioblastoma Cells. [Related pubchem assays: 1827 (Project Summary), 1813 (Primary HTS)]; format: functional
[7] = inhibitors of SNCA 5'UTR-driven reporter translation, confirmation, H4 neuroglioma cells, luminescence (AID 1988); format: functional, cell-based
[8] = test system: BJ; assay: cells; format: functional, cell-based; details: Homo sapiens
[9] = Luminescence Cell-Based Dose Confirmation HTS to Identify Inhibitors of 5'UTR Stem-Loop Driven Alpha-Synuclein mRNA Translation in H4 Neuroglioblastoma Cells. [Related pubchem assays: 1827 (Project Summary), 1813 (Primary HTS)]; format: functional
[10] = test system: BJ; assay: cytotoxicity toward BJ-TERT-LT-ST fibroblasts, dose response, cell-based, RAS-independent, luminescence (AID 1935); format: functional; details: Homo sapiens;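 further: BJ fibroblasts immortalized with TERT plus LT and ST oncogenes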
[11] = cytotoxicity toward DRD oncogenic fibroblasts, dose response, cell-based, non-viral oncogenic, luminescence (AID 1934); format: functional; details: Homo sapiens
[12] = test system: BJ; assay: cytotoxicity toward Ras-transformed BJeLR fibroblasts, dose response, cell-based, alamar blue fluorescence, cherrypicked samples (AID 2631); format: functional; details: Homo sapiens;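 further: confirmatory dose-response assay in RAS-dependent BJ fibroblasts engineered with TERT, LT and ST, with cytotoxicity read by fluorescence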
[13] = cells; format: functional, cell-based
[14] = target: T1, Nuclear receptor subfamily 0 group B member 1 (Homo sapiens, UniProt P51843); format: functional, cell-based;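 further: HEK293T cells transfected with SF-1 and DAX-1 plus StAR promoter luciferase reporter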
T1 sequence (P51843 whole entry): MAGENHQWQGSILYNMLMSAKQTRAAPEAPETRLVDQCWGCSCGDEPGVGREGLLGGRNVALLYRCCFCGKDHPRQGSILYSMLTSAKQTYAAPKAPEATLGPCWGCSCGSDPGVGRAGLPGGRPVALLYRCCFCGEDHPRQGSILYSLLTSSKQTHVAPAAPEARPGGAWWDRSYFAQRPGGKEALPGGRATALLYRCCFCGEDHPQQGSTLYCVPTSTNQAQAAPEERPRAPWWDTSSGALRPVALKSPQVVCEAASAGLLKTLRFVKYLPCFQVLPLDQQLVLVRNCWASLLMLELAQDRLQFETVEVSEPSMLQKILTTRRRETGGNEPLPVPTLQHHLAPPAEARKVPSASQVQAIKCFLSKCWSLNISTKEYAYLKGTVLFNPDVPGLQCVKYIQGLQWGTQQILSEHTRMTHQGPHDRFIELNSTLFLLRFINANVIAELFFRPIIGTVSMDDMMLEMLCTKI

[15] = target: Tyrosine-protein phosphatase non-receptor type 7 (Homo sapiens, UniProt P35236); format: functional
[16] = target: T2, Calpain-2 catalytic subunit (Sus scrofa, UniProt P43367); assay: pig calpain II inhibitor potency, dose response, biochemical, fluorogenic peptide substrate (AID 1420); format: functional
T2 sequence (P43367 whole entry): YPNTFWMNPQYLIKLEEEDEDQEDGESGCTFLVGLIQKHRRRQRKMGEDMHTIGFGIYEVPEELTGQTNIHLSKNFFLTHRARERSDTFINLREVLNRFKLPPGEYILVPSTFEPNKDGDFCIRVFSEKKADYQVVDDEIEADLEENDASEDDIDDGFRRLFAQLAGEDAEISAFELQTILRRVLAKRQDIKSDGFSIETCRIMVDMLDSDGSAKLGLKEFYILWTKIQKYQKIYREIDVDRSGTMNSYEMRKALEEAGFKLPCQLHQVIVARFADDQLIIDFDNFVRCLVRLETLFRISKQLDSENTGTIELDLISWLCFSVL

[17] = target: T3, Tyrosine-protein phosphatase non-receptor type 22 (Homo sapiens, UniProt Q9Y2R2); format: functional
[18] = target: T3, Tyrosine-protein phosphatase non-receptor type 22; format: functional; remark: listed apart in the source
[19] = target: T4, G-protein coupled receptor 55 (Homo sapiens, UniProt Q9Y2T6); assay: GPR55 antagonists blocking LPI-driven arrestin recruitment, primary screen, imaging, U2OS, beta-arrestin-GFP, LPI agonist (AID 2013); format: functional;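 further: antagonist potency measured as reduced agonist-driven arrestin aggregation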
[20] = target: Mucolipin-3 (Homo sapiens, UniProt Q8TDD5); assay: Dose response cell-based high-throughput screening assay for agonists of the transient receptor potential channel ML3 (TRPML3). [Related pubchem assays: 1526, 1424, 1448 ]; format: functional
[21] = target: Ion channel NompC (Danio rerio, UniProt Q7T1G6); assay: Fluorescence counterscreen assay for TRPML3 agonists: dose response cell-based high-throughput screening assay to identify agonists of the transient receptor potential channel N1 (TRPN1). [Related pubchem assays: 1526, 1424, 1448 ]; format: functional
[22] = target: T5, Cannabinoid receptor 1 (Homo sapiens, UniProt P21554); assay: SAR analysis of antagonists of the Cannabinoid Receptor 1 using an Image-Based Assay - Set 2. [Related pubchem assays (depositor defined):AID2013, AID2026]; format: functional
[23] = target: T6, G-protein coupled receptor 35 (Homo sapiens, UniProt Q9HC97); assay: SAR analysis of Agonists of the GPR35 Receptor using an Image-Based Assay - Set 2. [Related pubchem assays (depositor defined):AID2013, AID2026]; format: functional
[24] = target: T7, Cannabinoid receptor 2 (Homo sapiens, UniProt P34972); assay: SAR analysis of antagonists of the Cannabinoid Receptor 2 using an Image-Based Assay. [Related pubchem assays (depositor defined):AID2013, AID2026]; format: functional
[25] = target: T5, Cannabinoid receptor 1; assay: SAR analysis of agonists of the Cannabinoid Receptor 1 using an Image-Based Assay - Set 2. [Related pubchem assays (depositor defined):AID2013, AID2026]; format: functional
[26] = target: T6, G-protein coupled receptor 35; assay: SAR analysis of Antagonists of the GPR35 Receptor using an Image-Based Assay - Set 3. [Related pubchem assays (depositor defined):AID2013, AID2026]; format: functional
[27] = target: T4, G-protein coupled receptor 55; assay: GPR55 antagonist potency of analogs, SAR follow-up, imaging, U2OS, beta-arrestin-GFP, LPI agonist, set 2 (AID 2820); format: functional
[28] = target: T7, Cannabinoid receptor 2; assay: SAR analysis of agonists of the Cannabinoid Receptor 2 using an Image-Based Assay. [Related pubchem assays (depositor defined):AID2013, AID2026]; format: functional

T7 sequence (P34972 whole entry): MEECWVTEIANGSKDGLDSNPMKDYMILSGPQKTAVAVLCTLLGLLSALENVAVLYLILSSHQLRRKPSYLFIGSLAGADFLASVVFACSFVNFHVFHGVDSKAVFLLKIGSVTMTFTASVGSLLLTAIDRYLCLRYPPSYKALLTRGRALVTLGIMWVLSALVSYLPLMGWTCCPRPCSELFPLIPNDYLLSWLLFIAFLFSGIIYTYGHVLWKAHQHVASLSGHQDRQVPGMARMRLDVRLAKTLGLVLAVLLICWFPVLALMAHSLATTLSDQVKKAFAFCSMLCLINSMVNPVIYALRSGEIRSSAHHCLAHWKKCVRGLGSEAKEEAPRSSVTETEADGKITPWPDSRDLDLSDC
T3 sequence (Q9Y2R2 whole entry): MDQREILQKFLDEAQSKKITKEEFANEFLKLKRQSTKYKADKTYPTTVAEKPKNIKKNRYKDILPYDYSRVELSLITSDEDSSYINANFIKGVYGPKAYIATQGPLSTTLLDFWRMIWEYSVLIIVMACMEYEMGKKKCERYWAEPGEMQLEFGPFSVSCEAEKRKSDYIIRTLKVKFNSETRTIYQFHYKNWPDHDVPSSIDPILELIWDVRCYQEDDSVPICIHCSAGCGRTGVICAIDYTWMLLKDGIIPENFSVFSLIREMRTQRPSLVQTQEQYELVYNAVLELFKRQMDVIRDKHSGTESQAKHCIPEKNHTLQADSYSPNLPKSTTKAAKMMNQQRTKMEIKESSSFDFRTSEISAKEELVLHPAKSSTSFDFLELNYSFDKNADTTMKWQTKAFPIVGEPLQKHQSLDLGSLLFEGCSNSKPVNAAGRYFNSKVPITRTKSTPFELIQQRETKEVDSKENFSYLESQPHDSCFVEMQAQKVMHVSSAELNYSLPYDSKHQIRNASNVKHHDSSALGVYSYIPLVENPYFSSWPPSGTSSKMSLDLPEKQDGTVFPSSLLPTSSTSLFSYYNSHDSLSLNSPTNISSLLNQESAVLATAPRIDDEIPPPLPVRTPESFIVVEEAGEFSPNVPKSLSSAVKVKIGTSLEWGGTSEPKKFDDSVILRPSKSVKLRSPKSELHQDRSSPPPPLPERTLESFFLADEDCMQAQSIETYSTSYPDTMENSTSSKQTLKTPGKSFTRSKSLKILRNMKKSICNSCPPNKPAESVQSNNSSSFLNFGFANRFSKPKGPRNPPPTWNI
T6 sequence (Q9HC97 whole entry): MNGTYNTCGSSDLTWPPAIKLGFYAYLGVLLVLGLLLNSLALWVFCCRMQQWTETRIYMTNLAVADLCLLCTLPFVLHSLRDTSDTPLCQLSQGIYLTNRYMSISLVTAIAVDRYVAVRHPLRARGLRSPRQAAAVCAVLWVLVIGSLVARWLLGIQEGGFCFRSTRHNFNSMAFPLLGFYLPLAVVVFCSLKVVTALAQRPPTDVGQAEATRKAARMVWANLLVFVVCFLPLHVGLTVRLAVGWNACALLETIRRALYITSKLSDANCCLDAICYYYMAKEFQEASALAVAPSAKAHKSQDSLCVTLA
T5 sequence (P21554 whole entry): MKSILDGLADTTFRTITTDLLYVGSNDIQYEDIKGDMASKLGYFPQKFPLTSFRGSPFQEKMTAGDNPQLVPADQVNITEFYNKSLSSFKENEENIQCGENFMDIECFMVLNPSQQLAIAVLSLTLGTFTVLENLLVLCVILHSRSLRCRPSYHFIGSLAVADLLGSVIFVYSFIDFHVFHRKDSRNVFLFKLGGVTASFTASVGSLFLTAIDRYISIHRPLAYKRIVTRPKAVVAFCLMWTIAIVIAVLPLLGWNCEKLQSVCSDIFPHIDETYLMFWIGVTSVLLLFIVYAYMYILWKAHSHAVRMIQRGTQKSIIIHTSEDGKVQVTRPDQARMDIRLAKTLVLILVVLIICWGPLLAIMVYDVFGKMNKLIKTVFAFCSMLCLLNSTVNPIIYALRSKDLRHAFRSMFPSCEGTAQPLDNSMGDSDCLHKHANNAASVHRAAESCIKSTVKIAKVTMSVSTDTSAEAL
T4 sequence (Q9Y2T6 whole entry): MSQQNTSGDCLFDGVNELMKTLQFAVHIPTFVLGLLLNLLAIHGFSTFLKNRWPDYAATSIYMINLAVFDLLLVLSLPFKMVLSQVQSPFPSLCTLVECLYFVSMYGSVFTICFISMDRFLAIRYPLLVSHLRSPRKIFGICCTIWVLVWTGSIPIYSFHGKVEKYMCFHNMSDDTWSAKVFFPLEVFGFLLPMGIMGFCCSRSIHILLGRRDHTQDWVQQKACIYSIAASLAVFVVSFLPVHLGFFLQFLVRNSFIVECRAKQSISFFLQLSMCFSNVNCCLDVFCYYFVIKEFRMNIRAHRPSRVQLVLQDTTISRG
Mucolipin-3, sequence (Q8TDD5 whole entry): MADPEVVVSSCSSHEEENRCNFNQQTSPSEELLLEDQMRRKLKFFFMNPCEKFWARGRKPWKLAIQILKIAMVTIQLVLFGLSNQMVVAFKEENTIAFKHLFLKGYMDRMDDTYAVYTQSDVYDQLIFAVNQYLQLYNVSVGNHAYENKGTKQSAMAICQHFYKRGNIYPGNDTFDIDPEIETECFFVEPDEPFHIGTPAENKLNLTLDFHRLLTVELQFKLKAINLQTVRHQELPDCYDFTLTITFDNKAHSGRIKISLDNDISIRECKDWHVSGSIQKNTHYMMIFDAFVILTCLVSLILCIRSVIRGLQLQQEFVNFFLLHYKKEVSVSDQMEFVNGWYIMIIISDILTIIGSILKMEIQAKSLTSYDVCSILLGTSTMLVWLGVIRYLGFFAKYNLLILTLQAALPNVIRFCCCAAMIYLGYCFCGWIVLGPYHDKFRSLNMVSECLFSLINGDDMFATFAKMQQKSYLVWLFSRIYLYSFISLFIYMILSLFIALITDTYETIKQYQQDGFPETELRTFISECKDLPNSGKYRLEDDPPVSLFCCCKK
Ion channel NompC, sequence (Q7T1G6 whole entry): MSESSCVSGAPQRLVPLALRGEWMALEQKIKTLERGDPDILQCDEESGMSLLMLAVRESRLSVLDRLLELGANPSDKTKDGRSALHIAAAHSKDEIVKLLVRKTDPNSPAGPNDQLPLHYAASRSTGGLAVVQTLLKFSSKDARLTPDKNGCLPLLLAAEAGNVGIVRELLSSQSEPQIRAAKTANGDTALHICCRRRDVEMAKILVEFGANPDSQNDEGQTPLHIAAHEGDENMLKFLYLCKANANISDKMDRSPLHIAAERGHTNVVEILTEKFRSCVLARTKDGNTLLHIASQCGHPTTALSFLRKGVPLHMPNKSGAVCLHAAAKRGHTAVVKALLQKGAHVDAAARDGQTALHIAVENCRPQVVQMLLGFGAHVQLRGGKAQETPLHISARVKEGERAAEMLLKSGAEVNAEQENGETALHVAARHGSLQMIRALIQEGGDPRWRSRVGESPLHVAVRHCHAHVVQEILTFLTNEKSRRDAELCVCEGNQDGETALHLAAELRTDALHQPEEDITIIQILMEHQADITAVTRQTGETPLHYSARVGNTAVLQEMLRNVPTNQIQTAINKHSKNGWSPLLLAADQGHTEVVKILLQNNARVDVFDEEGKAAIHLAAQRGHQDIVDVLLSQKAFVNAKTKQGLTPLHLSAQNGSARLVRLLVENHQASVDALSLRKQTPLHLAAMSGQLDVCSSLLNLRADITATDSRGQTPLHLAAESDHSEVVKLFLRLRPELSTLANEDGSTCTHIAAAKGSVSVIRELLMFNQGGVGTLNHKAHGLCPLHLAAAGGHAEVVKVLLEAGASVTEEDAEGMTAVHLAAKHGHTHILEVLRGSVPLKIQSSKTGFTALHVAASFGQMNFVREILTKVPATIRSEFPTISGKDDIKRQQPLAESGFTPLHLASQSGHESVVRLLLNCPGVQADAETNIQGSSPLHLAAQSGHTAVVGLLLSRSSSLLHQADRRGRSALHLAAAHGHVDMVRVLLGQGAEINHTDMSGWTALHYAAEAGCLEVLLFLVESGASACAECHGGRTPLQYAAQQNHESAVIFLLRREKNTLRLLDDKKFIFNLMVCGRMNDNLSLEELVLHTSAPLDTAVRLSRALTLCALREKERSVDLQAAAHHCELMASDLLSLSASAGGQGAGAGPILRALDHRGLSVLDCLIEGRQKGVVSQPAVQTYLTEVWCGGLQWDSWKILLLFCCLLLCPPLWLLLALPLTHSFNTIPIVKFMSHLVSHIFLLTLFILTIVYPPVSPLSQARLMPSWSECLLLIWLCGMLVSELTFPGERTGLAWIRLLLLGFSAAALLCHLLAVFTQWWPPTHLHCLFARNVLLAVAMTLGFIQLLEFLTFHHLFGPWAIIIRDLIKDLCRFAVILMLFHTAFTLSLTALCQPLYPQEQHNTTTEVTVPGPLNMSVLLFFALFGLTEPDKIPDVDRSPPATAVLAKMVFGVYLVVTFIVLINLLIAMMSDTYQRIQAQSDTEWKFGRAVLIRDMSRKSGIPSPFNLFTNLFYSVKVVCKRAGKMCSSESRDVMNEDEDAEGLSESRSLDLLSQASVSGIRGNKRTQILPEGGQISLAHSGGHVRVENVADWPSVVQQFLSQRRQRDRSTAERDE
Tyrosine-protein phosphatase non-receptor type 7, sequence (P35236 whole entry): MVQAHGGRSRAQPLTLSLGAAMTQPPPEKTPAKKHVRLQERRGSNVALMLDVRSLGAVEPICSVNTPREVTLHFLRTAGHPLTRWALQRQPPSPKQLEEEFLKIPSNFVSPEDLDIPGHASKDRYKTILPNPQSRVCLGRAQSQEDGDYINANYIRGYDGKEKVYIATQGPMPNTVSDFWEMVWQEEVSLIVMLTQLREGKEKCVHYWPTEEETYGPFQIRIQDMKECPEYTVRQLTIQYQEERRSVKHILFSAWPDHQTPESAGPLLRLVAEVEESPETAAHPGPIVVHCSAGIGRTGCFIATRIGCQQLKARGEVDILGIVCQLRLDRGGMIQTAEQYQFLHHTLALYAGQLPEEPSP

CCc1ccc(CNC(=O)Cc2ccc(NC(=O)C3=C(C)OCCS3)cc2)cc1
active: EC50 [1] 51.1 µM | EC50 [4] 0.592 µM | EC50 [6] 104 µM | EC50 [7] 0.899 µM | EC50 [8] 23.3 µM | EC50 [10] 3.01 µM | EC50 [12] 0.379 µM
> 195 µM (not active): EC50 [9]
inconclusive: EC50 [2] 51.1 µM | EC50 [3] 0.592 µM | EC50 [5] 7.66 µM | EC50 [11] 10.7 µM
inactive: IC50 [13] > 67.5 µM | IC50 [14] > 67.5 µM

O=C(Nc1ccc(Cl)cc1)c1ccc(OC2CSC2)cc1
inactive: IC50 [15] > 79.4 µM | IC50 [17] > 79.4 µM | IC50 [18] > 79.4 µM
16.7 µM (not active): IC50 [16]

COc1ccc(S(=O)(=O)Nc2ccc(C)cc2)cc1N(C)S(=O)(=O)c1ccc(Cl)cc1
inactive: EC50 [23] > 32 µM | IC50 [24] > 32 µM | EC50 [25] > 32 µM | IC50 [26] > 32 µM | EC50 [28] > 32 µM
active: IC50 [19] 1.8 µM | EC50 [20] 6.67 µM | IC50 [22] 5.95 µM | IC50 [27] 0.992 µM
> 29.9 µM (not active): EC50 [21]
